Measured values reported in patent publication US11998539B2, “Substituted aminoquinolones as DGKalpha inhibitors for immune activation” (Bayer Aktiengesellschaft, priority 2019, dated 2024).
pIC50: −log10 of the molar value.

Biological target: DGKα (Homo sapiens (Human), UniProt P23743)
Test: Human DGKα kinase activity inhibition assay (ADP-Glo)
Type: biochemical
Conditions: recombinant full-length human DGKα, 55 μM ATP, 7 μM 1,2-dioleoyl-sn-glycerol, read-out: IC50 values of examples in in vitro human DGKa kinase activity inhibition assays
How it was run: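 Recombinant full-length human DGKα (C-terminal FLAG, from insect cells) phosphorylated 1,2-dioleoyl-sn-glycerol presented in octyl-glucopyranoside micelles. ADP formed was quantified by ADP-Glo luminescence. Compounds were added from 100-fold DMSO stocks.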

Chain of DGKα (P23743 other isoform, or with tags, fused parts or gaps): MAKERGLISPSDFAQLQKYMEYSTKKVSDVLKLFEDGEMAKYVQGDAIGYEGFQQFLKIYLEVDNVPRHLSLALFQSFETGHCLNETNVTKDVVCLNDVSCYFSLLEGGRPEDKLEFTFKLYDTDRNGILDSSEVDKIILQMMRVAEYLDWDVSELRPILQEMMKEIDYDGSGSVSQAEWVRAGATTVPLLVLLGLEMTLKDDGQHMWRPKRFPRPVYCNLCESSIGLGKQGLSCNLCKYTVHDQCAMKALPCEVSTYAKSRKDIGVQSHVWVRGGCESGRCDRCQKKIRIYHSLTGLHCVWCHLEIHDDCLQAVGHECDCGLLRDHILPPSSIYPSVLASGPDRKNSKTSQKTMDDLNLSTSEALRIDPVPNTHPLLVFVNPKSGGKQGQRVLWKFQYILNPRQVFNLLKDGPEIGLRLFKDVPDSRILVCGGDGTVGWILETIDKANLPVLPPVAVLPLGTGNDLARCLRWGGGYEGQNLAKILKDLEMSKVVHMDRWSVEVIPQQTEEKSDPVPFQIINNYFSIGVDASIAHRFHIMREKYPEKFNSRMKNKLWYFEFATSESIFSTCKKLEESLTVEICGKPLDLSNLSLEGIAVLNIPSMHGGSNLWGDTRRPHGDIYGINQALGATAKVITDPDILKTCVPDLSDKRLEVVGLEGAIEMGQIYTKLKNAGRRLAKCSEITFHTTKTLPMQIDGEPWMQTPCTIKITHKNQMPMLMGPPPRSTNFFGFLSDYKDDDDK

Row | Compound | pIC50
1 | Cn1c(=O)c(C#N)c(N2CCC(c3nc4ccccc4s3)CC2)c2ccccc21 [Example 12, 4-[4-(1,3-benzothiazol-2-yl)piperidin-1-yl]-1-methyl-2-oxo-1,2-dihydroquinoline-3-carbonitrile] | 8.46
2 | Cc1cccc(-n2ccc(C3CCN(c4c(C#N)c(=O)n(C)c5ccccc45)CC3)n2)c1 [Example 366, 1-methyl-4-{4-[1-(3-methylphenyl)-1H-pyrazol-3-yl]piperidin-1-yl}-2-oxo-1,2-dihydroquinoline-3-carbonitrile] | 7.92
3 | Cc1ccc2nc(C3(C)CCN(c4c(C#N)c(=O)n(C)c5ccc(C)cc45)CC3)oc2c1 [Example 188, 1,6-dimethyl-4-[4-methyl-4-(6-methyl-1,3-benzoxazol-2-yl)piperidin-1-yl]-2-oxo-1,2-dihydroquinoline-3-carbonitrile] | 8.59
4 | Cc1ccc2oc(C3CCN(c4c(C#N)c(=O)n(C)c5cc(OC6CCOC6)ccc45)CC3)nc2c1 (racemic) [Example 379, (rac)-1-methyl-4-[4-(5-methyl-1,3-benzoxazol-2-yl)piperidin-1-yl]-2-oxo-7-[(oxolan-3-yl)oxy]-1,2-dihydroquinoline-3-carbonitrile] | 9.00
5 | CCC1(c2nc3ccccc3o2)CCN(c2c(C#N)c(=O)n(C)c3cc(Br)ccc23)CC1 [Example 223, 4-[4-(1,3-benzoxazol-2-yl)-4-ethylpiperidin-1-yl]-7-bromo-1-methyl-2-oxo-1,2-dihydroquinoline-3-carbonitrile] | 8.92
6 | Cc1ccc2oc(C3(C)CCN(c4c(C#N)c(=O)n(C)c5c(Br)cccc45)CC3)nc2c1C(F)(F)F [Example 233, 8-bromo-1-methyl-4-{4-methyl-4-[5-methyl-4-(trifluoromethyl)-1,3-benzoxazol-2-yl]piperidin-1-yl}-2-oxo-1,2-dihydroquinoline-3-carbonitrile] | 5.90
7 | CN1C(=O)C(C)(C)c2cc(C3CCN(c4c(C#N)c(=O)n(C)c5ccccc45)CC3)ccc21 [Example 358, 1-methyl-2-oxo-4-[4-(1,3,3-trimethyl-2-oxo-2,3-dihydro-1H-indol-5-yl)piperidin-1-yl]-1,2-dihydroquinoline-3-carbonitrile] | 7.36
8 | CNC(=O)c1c(N2CCC(c3nc4ccccc4o3)CC2)c2ccccc2n(C)c1=O [Example 447, 4-[4-(1,3-benzoxazol-2-yl)piperidin-1-yl]-N,1-dimethyl-2-oxo-1,2-dihydroquinoline-3-carboxamide] | 7.20
9 | Cn1c(=O)c(C#N)c(N2CCC(c3nc4ccc(C5COC5)cc4o3)CC2)c2ccccc21 [Example 388, 1-methyl-4-{4-[6-(oxetan-3-yl)-1,3-benzoxazol-2-yl]piperidin-1-yl}-2-oxo-1,2-dihydroquinoline-3-carbonitrile] | 7.48
10 | Cn1c(=O)c(C(N)=O)c(N2CCC(c3nc4ccccc4o3)CC2)c2cc(F)ccc21 [Example 299, 4-[4-(1,3-benzoxazol-2-yl)piperidin-1-yl]-6-fluoro-1-methyl-2-oxo-1,2-dihydroquinoline-3-carboxamide] | 9.00
11 | Cn1c(=O)c(C(N)=O)c(N2CCC(c3nc4cc(F)c(F)cc4o3)CC2)c2ccccc21 [Example 109, 4-[4-(5,6-difluoro-1,3-benzoxazol-2-yl)piperidin-1-yl]-1-methyl-2-oxo-1,2-dihydroquinoline-3-carboxamide] | 8.68
12 | Cc1ccc2oc(C3CCN(c4c(C#N)c(=O)n(C)c5cc(C)ccc45)CC3)nc2c1 [Example 221, 1,7-dimethyl-4-[4-(5-methyl-1,3-benzoxazol-2-yl)piperidin-1-yl]-2-oxo-1,2-dihydroquinoline-3-carbonitrile] | 8.74
13 | Cc1ccc(C2CCN(c3c(C#N)c(=O)n(C)c4ccccc34)CC2)cc1 [Example 83, 1-methyl-4-[4-(4-methylphenyl)piperidin-1-yl]-2-oxo-1,2-dihydroquinoline-3-carbonitrile] | 8.36
14 | Cn1c(=O)c(C#N)c(N2CCC(c3cccc(Br)c3)CC2)c2ccccc21 [Example 85] | 7.27
15 | Cc1ccc2cc(C3CCN(c4c(C#N)c(=O)n(C)c5ccccc45)CC3)ccc2n1 [Example 371, 1-methyl-4-[4-(2-methylquinolin-6-yl)piperidin-1-yl]-2-oxo-1,2-dihydroquinoline-3-carbonitrile] | 7.85
16 | Cc1cccc(-c2nnc(C3CCN(c4c(C#N)c(=O)n(C)c5ccccc45)CC3)o2)c1 [Example 353, 1-methyl-4-{4-[5-(3-methylphenyl)-1,3,4-oxadiazol-2-yl]piperidin-1-yl}-2-oxo-1,2-dihydroquinoline-3-carbonitrile] | 6.60
17 | Cc1cc(C2(C)CCN(c3c(C#N)c(=O)n(C)c4ccccc34)CC2)nc2ccccc12 [Example 364, 1-methyl-4-[4-methyl-4-(4-methylquinolin-2-yl)piperidin-1-yl]-2-oxo-1,2-dihydroquinoline-3-carbonitrile] | 7.47
18 | Cn1c(=O)c(C#N)c(N2CCC(O)(c3cccc(C(F)(F)F)c3)CC2)c2ccccc21 [Example 152, 4-{4-hydroxy-4-[3-(trifluoromethyl)phenyl]piperidin-1-yl}-1-methyl-2-oxo-1,2-dihydroquinoline-3-carbonitrile] | 5.97

Row | Compound | pIC50
19 | Cn1c(=O)c(C#N)c(N2CCC(c3nc4ccccc4s3)CC2)c2ccc(N3CCCC3=O)cc21 [Example 36, 4-[4-(1,3-benzothiazol-2-yl)piperidin-1-yl]-1-methyl-2-oxo-7-(2-oxopyrrolidin-1-yl)-1,2-dihydroquinoline-3-carbonitrile] | 8.08
20 | Cc1ccc2oc(C3CCN(c4c(C#N)c(=O)n(C)c5ccc(Br)cc45)CC3)nc2c1 [Example 396, 6-bromo-1-methyl-4-[4-(5-methyl-1,3-benzoxazol-2-yl)piperidin-1-yl]-2-oxo-1,2-dihydroquinoline-3-carbonitrile] | 9.05
21 | Cn1c(=O)c(C#N)c(N2CCC(c3ccc4c(c3)C(C)(C)CN4)CC2)c2ccccc21 [Example 356, 4-[4-(3,3-dimethyl-2,3-dihydro-1H-indol-5-yl)piperidin-1-yl]-1-methyl-2-oxo-1,2-dihydroquinoline-3-carbonitrile] | 8.29
22 | Cc1cc(C2(C)CCN(c3c(C(N)=O)c(=O)n(C)c4ccccc34)CC2)nc2ccccc12 [Example 470, 1-methyl-4-[4-methyl-4-(4-methylquinolin-2-yl)piperidin-1-yl]-2-oxo-1,2-dihydroquinoline-3-carboxamide] | 7.89
23 | CNC(=O)c1c(N2CCC(c3nc4ccccc4s3)CC2)c2ccccc2n(C)c1=O [Example 145, 4-[4-(1,3-benzothiazol-2-yl)piperidin-1-yl]-N,1-dimethyl-2-oxo-1,2-dihydroquinoline-3-carboxamide] | 7.39
24 | Cc1ccc2oc(C3CCN(c4c(C(N)=O)c(=O)n(C)c5cc(F)c(C#N)cc45)CC3)nc2c1 [Example 564, 6-cyano-7-fluoro-1-methyl-4-[4-(5-methyl-1,3-benzoxazol-2-yl)piperidin-1-yl]-2-oxo-1,2-dihydroquinoline-3-carboxamide] | 8.48
25 | 4-[4-(1,3-benzoxazol-5-yl)piperidin-1-y-1-methyl-2-oxo-1,2-dihydroquinoline-3-carbonitrile [Example 67] | 7.07
26 | Cn1c(=O)c(C#N)c(N2CCC(c3nc4ccccc4o3)CC2)c2cc(Br)ccc21 [Example 168, 4-[4-(1,3-benzoxazol-2-yl)piperidin-1-yl]-6-bromo-1-methyl-2-oxo-1,2-dihydroquinoline-3-carbonitrile] | 9.30
27 | Cc1ccc2oc(C3CCN(c4c(C#N)c(=O)n(C)c5cc(O)ccc45)CC3)nc2c1 [Example 293, 7-hydroxy-1-methyl-4-[4-(5-methyl-1,3-benzoxazol-2-yl)piperidin-1-yl]-2-oxo-1,2-dihydroquinoline-3-carbonitrile] | 8.68
28 | Cn1c(=O)c(C(N)=O)c(N2CCC(c3nc(-c4ccccc4)no3)CC2)c2cc(Br)ccc21 [Example 523, 6-bromo-1-methyl-2-oxo-4-[4-(3-phenyl-1,2,4-oxadiazol-5-yl)piperidin-1-yl]-1,2-dihydroquinoline-3-carboxamide] | 8.43
29 | CCCOc1ccc(C2CCN(c3c(C#N)c(=O)n(C)c4ccccc34)CC2)cc1 [Example 42, 1-methyl-2-oxo-4-[4-(4-propoxyphenyl)piperidin-1-yl]-1,2-dihydroquinoline-3-carbonitrile] | 7.96
30 | Cc1ccc2c(c1)c(N1CCC(C)(c3nc4ccccc4o3)CC1)c(C(N)=O)c(=O)n2C [Example 195, 4-[4-(1,3-benzoxazol-2-yl)-4-methylpiperidin-1-yl]-1,6-dimethyl-2-oxo-1,2-dihydroquinoline-3-carboxamide] | 8.82
31 | COCCc1cccc2oc(C3CCN(c4c(C#N)c(=O)n(C)c5ccccc45)CC3)nc12 [Example 265, 4-{4-[4-(2-methoxyethyl)-1,3-benzoxazol-2-yl]piperidin-1-yl}-1-methyl-2-oxo-1,2-dihydroquinoline-3-carbonitrile] | 7.31
32 | Cc1nc2cc(C3CCN(c4c(C#N)c(=O)n(C)c5ccccc45)CC3)ccc2o1 [Example 345, 1-methyl-4-[4-(2-methyl-1,3-benzoxazol-5-yl)piperidin-1-yl]-2-oxo-1,2-dihydroquinoline-3-carbonitrile] | 7.42
33 | Cc1cccc(-c2noc(C3CCN(c4c(C#N)c(=O)n(C)c5ccccc45)CC3)n2)c1 [Example 350, 1-methyl-4-{4-[3-(3-methylphenyl)-1,2,4-oxadiazol-5-yl]piperidin-1-yl}-2-oxo-1,2-dihydroquinoline-3-carbonitrile] | 7.96
34 | COc1ccc2c(c1)c(N1CCC(c3nc4cc(C)ccc4o3)CC1)c(C(N)=O)c(=O)n2C [Example 501, 6-methoxy-1-methyl-4-[4-(5-methyl-1,3-benzoxazol-2-yl)piperidin-1-yl]-2-oxo-1,2-dihydroquinoline-3-carboxamide] | 7.68
35 | Cn1c(=O)c(C#N)c(N2CCC(c3nc4ccccc4o3)CC2)c2ccc(Cl)cc21 [Example 227, 4-[4-(1,3-benzoxazol-2-yl)piperidin-1-yl]-7-chloro-1-methyl-2-oxo-1,2-dihydroquinoline-3-carbonitrile] | 8.70
